Measurements published in patent US20240376154A1, “BIS-INTERCALATING PEPTIDES, CONJUGATES AND METHODS OF USE” (ZYMEWORKS BC INC., priority 2023, published 2024).

Tests used:
[1] = amide bond; 32-membered ring
[2] = tested on: tumour cells (at least 4 of a panel of ovarian, breast, lung, pancreatic, placenta, colon cell lines); assay: In vitro cytotoxicity (cell proliferation, CellTiter-Glo), average over tumour cell line panel; type: cell-based; conditions: average pIC50 on all cell lines tested; 5 nights incubation; CellTiter-Glo
Experimental: The ability of representative compounds of Formula I to inhibit proliferation of tumour cells in vitro was evaluated in at least 4 of the following cell lines: OVCAR-3 (ovarian, ATCC), SKOV-3 (ovarian, ATCC), IGROV-1 (ovarian, national research council of Canada (NRC)), OV-90 (ovarian, ATCC), OVKATE (Ovarian, Japanese Collection of Research Bioresources (JCRB) (JCRB1044)), JIMT-1 (breast, NRC), SK-BR-3 (breast, ATCC), T-47D (breast, ATCC), ZR-75-1 (breast, ATCC), MDA-MB-468 (breast, AddexBio), BT-20 (breast, ATCC), BT-474 (breast, NRC), MDA-MB-175 (breast, AddexBio), A549 (lung, collaborator), NCI-H226 (lung, NRC), NCI-H661 (lung, NRC), NCI-H1573 (lung, ATCC). NCI-H1563 (lung, ATCC), H358 (lung, collaborator), EBC-1 (lung, Xenotech), H1299 (lung, NRC), NCI-H292 (lung, ATCC), HCC817 (lung, ATCC), NCI-H441 (lung, ATCC), MIA-PaCa-2 (pancreatic, ATCC), BxPC-3 (pancreatic, ATCC), Panc-1 (pancreatic, ATCC), AsPC-1 (pancreatic, ATCC), JEG-3 (placenta, AddexBio), HT-29 (colon, ATCC).
Cells were cultured per vendor instructions and in log-phase growth were detached by brief incubation in 0.05% trypsin, then resuspended in respective culturing media at 20,000 cells/mL (except for ZR-75 cells, which were resuspended at 10,000 cells/mL). 50 μL/well (˜1000 cells/well) were transferred to sterile tissue culture (TC)-treated 384-well plates (ThermoFisher Scientific, Catalogue #164610) and incubated overnight at 37° C. with 5% CO2 to allow the cells to adhere to the plate surface. The next day, in a sterile, V-bottom, 96-well plate, test articles were titrated 1:3 in complete growth medium, creating a 10-point dose response titration with compounds at 3.5-times the desired final concentration. 20 μL from each dilution were added to the 384-well plate containing the seeded cells and these plates were incubated at 37° C. with 5% CO2 for 5 nights. Cell viability was quantified by first incubating with 15 μL/well of CellTiter-Glo® (Promega, Catalogue #G7572) for 30 minutes, then measuring luminescence with a microplate luminometer (BioTek® Synergy™ H1 Microplate Reader). IC50 values were determined by GraphPad Prism (GraphPad Software, San Diego, CA).
The results are presented in Table 7.1 and discussed in Example 7. Table 7.1 presents the results as average pIC50 values. pIC50=−log (IC50), thus, for example, pIC50=9 is equivalent to IC50=1 nM, and pIC50=6 is equivalent to IC50=1 μM.

[3] = Lipophilicity by experimental HPLC retention time; type: physicochemical; conditions: HPLC retention time as measure of lipophilicity; C18, 10 to 90% CH3CN/H2O with 0.1% FA over 25 min
Experimental: The ability to kill neighboring cells (i.e. bystander effect) is an important property for ADC payloads. For a payload comprising a compound of Formula I to be capable of bystander killing, membrane permeability (or transport) is required and the ability of compounds of Formula I to cross cell membranes and exert a cytotoxic effect was expected to be heavily influenced by lipophilicity.
Compounds were analyzed using an Agilent 1260 HPLC (Agilent Technologies, Inc., Santa Clara, CA) equipped with a Diode array detector and using a Phenomenex Kinetex EVO C18 150×4.6, 2.6 μm column (Phenomenex, Torrance, CA), eluting with 10 to 90% CH3CN/H2O with 0.1% FA over 25 min.

Benzyl tert-butyl ((7R,11S,19aS,26R,30S,38aS)-11,30-diisopropyl-12,15,31,34-tetramethyl-6,10,13,16,19,25,29,32,35,38-decaoxohexatriacontahydro-2H,6H-dipyrido[1,2-a:1′,2′-q][1,4,7,10,13,17,20,23,26,29]decaazacyclodotriacontine-7,26-diyl)dicarbamate
ring closure, isolated yield [1]: 69%

CN1CC(=O)N(C)[C@@H](C2CCCCC2)C(=O)NC[C@@H](NC(=O)c2nc3ccccc3cc2O)C(=O)N2CCCC[C@H]2C(=O)NCC(=O)N(C)CC(=O)N(C)[C@@H](C2CCCCC2)C(=O)NC[C@@H](NC(=O)c2nc3ccccc3cc2O)C(=O)N2CCCC[C@H]2C(=O)NCC1=O [Compound 162, N,N′-((7R,11S,19aS,26R,30S,38aS)-11,30-dicyclohexyl-12,15,31,34-tetramethyl-6,10,13,16,19,25,29,32,35,38-decaoxohexatriacontahydro-2H,6H-dipyrido[1,2-a:1′,2′-q][1,4,7,10,13,17,20,23,26,29]decaazacyclodotriacontine-7,26-diyl)bis(3-hydroxyquinoline-2-carboxamide)]
pIC50 (average) [2]: 9.1
HPLC [3]: 20.7 min

CC[C@H](C)[C@H]1C(=O)NC[C@@H](NC(=O)c2nc3ccc(Br)cc3cc2O)C(=O)N2CCCC[C@H]2C(=O)NCC(=O)N(C)CC(=O)N(C)[C@@H]([C@@H](C)CC)C(=O)NC[C@@H](NC(=O)c2nc3ccc(Br)cc3cc2O)C(=O)N2CCCC[C@H]2C(=O)NCC(=O)N(C)CC(=O)N1C [Compound 127, N,N′-((7R,11S,19aS,26R,30S,38aS)-11,30-di((S)-sec-butyl)-12,15,31,34-tetramethyl-6,10,13,16,19,25,29,32,35,38-decaoxohexatriacontahydro-2H,6H-dipyrido[1,2-a:1′,2′-q][1,4,7,10,13,17,20,23,26,29]decaazacyclodotriacontine-7,26-diyl)bis(6-bromo-3-hydroxyquinoline-2-carboxamide)]
pIC50 (average) [2]: 8.7
HPLC [3]: 21.0 min

CC(C)[C@H]1C(=O)NC[C@@H](NC(=O)c2nc3ccccc3cc2O)C(=O)N2CCCC[C@H]2C(=O)NCC(=O)N(C)CC(=O)N(C)C2(CCC2)C(=O)NC[C@@H](NC(=O)c2nc3ccccc3cc2O)C(=O)N2CCCC[C@H]2C(=O)NCC(=O)N(C)CC(=O)N1C [Compound 121, N,N′-((7′R,19a'S,26′R,30'S,38a'S)-30′-isopropyl-12′,15′,31′,34′-tetramethyl-6′,10′,13′,16′,19′,25′,29′,32′,35′,38′-decaoxotetratriacontahydro-2′H,6′H,12′H-spiro[cyclobutane-1,11′-dipyrido[1,2-a:1′,2′-q][1,4,7,10,13,17,20,23,26,29]decaazacyclodotriacontine]-7′,26′-diyl)bis(3-hydroxyquinoline-2-carboxamide)]
pIC50 (average) [2]: 8.18
HPLC [3]: 17.0 min

CC(C)[C@H]1C(=O)NC[C@@H](NC(=O)c2nc3ccccc3cc2O)C(=O)N2CCCC[C@H]2C(=O)NCC(=O)N(C)CC(=O)N(C)C2(CC2)C(=O)NC[C@@H](NC(=O)c2nc3ccccc3cc2O)C(=O)N2CCCC[C@H]2C(=O)NCC(=O)N(C)CC(=O)N1C [Compound 109, N,N′-((7′R,19a'S,26′R,30'S,38a'S)-30′-isopropyl-12′,15′,31′,34′-tetramethyl-6′,10′,13′,16′,19′,25′,29′,32′,35′,38′-decaoxotetratriacontahydro-2′H,6′H,12′H-spiro[cyclopropane-1,11′-dipyrido[1,2-a:1′,2′-q][1,4,7,10,13,17,20,23,26,29]decaazacyclodotriacontine]-7′,26′-diyl)bis(3-hydroxyquinoline-2-carboxamide)]
pIC50 (average) [2]: 7.77
HPLC [3]: 15.4 min

CCN1C(=O)CN(C)C(=O)CNC(=O)[C@@H]2CCCCN2C(=O)[C@H](NC(=O)c2nc3ccccc3cc2O)CNC(=O)[C@H](C(C)C)N(CC)C(=O)CN(C)C(=O)CNC(=O)[C@@H]2CCCCN2C(=O)[C@H](NC(=O)c2nc3ccccc3cc2O)CNC(=O)[C@@H]1C(C)C [Compound 147, N,N′-((7R,11S,19aS,26R,30S,38aS)-12,31-diethyl-11,30-diisopropyl-15,34-dimethyl-6,10,13,16,19,25,29,32,35,38-decaoxohexatriacontahydro-2H,6H-dipyrido[1,2-a:1′,2′-q][1,4,7,10,13,17,20,23,26,29]decaazacyclodotriacontine-7,26-diyl)bis(3-hydroxyquinoline-2-carboxamide)]
pIC50 (average) [2]: 8.5
HPLC [3]: 17.9 min

CC[C@H](C)[C@H]1COC[C@@H](NC(=O)c2nc3ccccc3cc2O)C(=O)N2CCCC[C@H]2C(=O)NCC(=O)N(C)CC(=O)N(C)[C@@H](C(C)C)C(=O)NC[C@@H](NC(=O)c2nc3ccccc3cc2O)C(=O)N2CCCC[C@H]2C(=O)NCC(=O)N(C)CC(=O)N1C [Compound 197, N,N′-((7R,11S,19aS,26R,30S,38aS)-11-((S)-sec-butyl)-30-isopropyl-12,15,31,34-tetramethyl-6,13,16,19,25,29,32,35,38-nonaoxotetratriacontahydro-2H,6H,10H-dipyrido[2,1-b1: 2′,1′-l][1]oxa[4,7,10,13,17,20,23,26,29]nonaazacyclodotriacontine-7,26-diyl)bis(3-hydroxyquinoline-2-carboxamide)]
pIC50 (average) [2]: 9.4
HPLC [3]: 19.4 min

CC(C)[C@H]1C(=O)NC[C@@H](NC(=O)c2nc3ccccc3cc2O)C(=O)N2CCCC[C@H]2C(=O)NCC(=O)N(C)CC(=O)N(C)[C@@H](c2ccccc2)C(=O)NC[C@@H](NC(=O)c2nc3ccccc3cc2O)C(=O)N2CCCC[C@H]2C(=O)NCC(=O)N(C)CC(=O)N1C [Compound 103, N,N′-((7R,11S,19aS,26R,30S,38aS)-11-isopropyl-12,15,31,34-tetramethyl-6,10,13,16,19,25,29,32,35,38-decaoxo-30-phenylhexatriacontahydro-2H,6H-dipyrido[1,2-a:1′,2′-q][1,4,7,10,13,17,20,23,26,29]decaazacyclodotriacontine-7,26-diyl)bis(3-hydroxyquinoline-2-carboxamide)]
pIC50 (average) [2]: 7.3
HPLC [3]: 17.2 min

CC(C)[C@H]1C(=O)NC[C@@H](NC(=O)c2nc3ccccc3cc2O)C(=O)N2CCCC[C@H]2C(=O)NCC(=O)N(C)CC(=O)N(C)C(C)(C)C(=O)NC[C@@H](NC(=O)c2nc3ccccc3cc2O)C(=O)N2CCCC[C@H]2C(=O)NCC(=O)N(C)CC(=O)N1C [Compound 115, N,N′-((7R,19aS,26R,30S,38aS)-30-isopropyl-11,11,12,15,31,34-hexamethyl-6,10,13,16,19,25,29,32,35,38-decaoxohexatriacontahydro-2H,6H-dipyrido[1,2-a:1′,2′-q][1,4,7,10,13,17,20,23,26,29]decaazacyclodotriacontine-7,26-diyl)bis(3-hydroxyquinoline-2-carboxamide)]
pIC50 (average) [2]: Inactive
HPLC [3]: 15.8 min

CN1CC(=O)N2CCCCC[C@H]2C(=O)NC[C@@H](NC(=O)c2nc3ccccc3cc2O)C(=O)N2CCCC[C@H]2C(=O)NCC(=O)N(C)CC(=O)N2CCCCC[C@H]2C(=O)NC[C@@H](NC(=O)c2nc3ccccc3cc2O)C(=O)N2CCCC[C@H]2C(=O)NCC1=O [Compound 157, N,N′-((7R,10aS,23aS,30R,33aS,46aS)-19,42-dimethyl-6,10,17,20,23,29,33,40,43,46-decaoxotetratetracontahydro-6H,29H-bis(azepino) [1,2-j:1′,2′-z]dipyrido[1,2-a:1′,2′-q][1,4,7,10,13,17,20,23,26,29]decaazacyclodotriacontine-7,30-diyl)bis(3-hydroxyquinoline-2-carboxamide)]
pIC50 (average) [2]: 7.1
HPLC [3]: 15.8 min
